In this assay the test system is astrocytes. As to the kind of experiment: Other amino acids promote uptake of plasmid vectors by astrocytes. The class given is in vivo. The conditions noted are these: amino acid solution as vehicle. Here is the method:
Other amino acids, including serine, alanine, histidine, γ-aminobutyric acid, proline, lysine, and threonine, are tested. […] From the analysis of the transfection efficiency of various amino acids, it was seen that, except for alanine, the efficiency of L-type amino acids is much higher than that of D-type amino acids (please see FIG. 11).
Histidine, lysine, and arginine, which are also positively charged, are significant differences in delivery efficiency, and gene delivery efficiency of threonine, serine lysine, etc. also has vast differences.
Regarding `C[C@@H](O)[C@H](N)C(=O)O` [L-Threonine], the “uptake of plasmid vectors by astrocytes” value was “promote astrocyte uptake of plasmid vector(s)”.

Turning to `NCCCC[C@H](N)C(=O)O` [lysine], the “uptake of plasmid vectors by astrocytes” value is given as “can efficiently promote astrocytes to take up plasmid vectors”.

`N[C@@H](CO)C(=O)O` [L-Serine]: the “uptake of plasmid vectors by astrocytes” value was “promote astrocyte uptake of plasmid vector(s)”.

In the case of `C[C@@H](N)C(=O)O` [D-Alanine], the “uptake of plasmid vectors by astrocytes” value is recorded as “promote astrocyte uptake of plasmid vector(s)”.

As for `N[C@@H](Cc1c[nH]cn1)C(=O)O` [L-Histidine], the “uptake of plasmid vectors by astrocytes” value is reported as “promote astrocyte uptake of plasmid vector(s)”.

On to `N[C@@H](CO)C(=O)O` [serine], for which the “uptake of plasmid vectors by astrocytes” value is on record as “can efficiently promote astrocytes to take up plasmid vectors”.

Take `N[C@@H](Cc1c[nH]cn1)C(=O)O` [histidine]: the “uptake of plasmid vectors by astrocytes” value is listed as “can efficiently promote astrocytes to take up plasmid vectors”.

`C[C@@H](O)[C@H](N)C(=O)O` [threonine]: the “uptake of plasmid vectors by astrocytes” value was “can efficiently promote astrocytes to take up plasmid vectors”.

In the case of `C[C@H](N)C(=O)O` [alanine], the “uptake of plasmid vectors by astrocytes” value is reported as “can efficiently promote astrocytes to take up plasmid vectors”.

Take `NCCCC(=O)O` [γ-aminobutyric acid]: the “uptake of plasmid vectors by astrocytes” value is “can efficiently promote astrocytes to take up plasmid vectors”.

With `O=C(O)[C@@H]1CCCN1` [proline], the “uptake of plasmid vectors by astrocytes” value is recorded as “can efficiently promote astrocytes to take up plasmid vectors”.

The values are drawn from patent US20230133587A1, “Amino Acid Mediated Gene Delivery and Its Uses” (CHINESE INSTITUTE FOR BRAIN RESEARCH, BEIJING, priority 2020, published 2023).
